The assay relates to P. falciparum 3D7 growth, pLDH absorbance. Description: P. falciparum 3D7 growth inhibition, dose response, strain 3D7 (AID 2305).

The record followed here is PubChem BioAssay AID2305 (GlaxoSmithKline (GSK), 2010).

What is called IC50 is the midpoint of a concentration-inhibition curve.

In the case of `NCCNc1ccc([N+](=O)[O-])cc1C(=O)Nc1cccc(Cl)c1`, the IC50 stood at 1260 nM. The molecule `CCN(CCCN1CCCCC1)c1cc(C)nc(Nc2ccc(Cl)cc2C)n1` had an IC50 of 730 nM. Molecule `O=C(/C=C/c1ccc(Cl)c(Cl)c1)NCCCCCCN1CCN(C(=O)Nc2cc(Cl)nc(Cl)c2)CC1` had an IC50 of 780 nM.

`CC(C)(C)OC(=O)NCc1ccc(Nc2nnc(-c3cccc(C(=O)NCCC(c4ccccc4)c4ccccc4)c3)o2)cc1` displayed an IC50 of 580 nM.

`O=C(/C=C/c1ccc(Cl)c(Cl)c1)NCCCCCN1CCC(NC(=O)Nc2ccc(C(F)(F)F)cc2)C1` (stereo not drawn) returned an IC50 of 510 nM. Turning to `O=[N+]([O-])c1ccc(C=NO)nc1`, the IC50 was found to be 870 nM. As for `Cc1cccc2[nH]c(-c3ccc(-c4cccc(NC(=O)NCc5ccccc5)c4)cc3)nc12`, the figure is 780 nM; as for `COCCNC(=O)c1ccc(OC2CCN(Cc3ccc(F)c(F)c3)CC2)c(Cl)c1`, 1490 nM; as for `CCn1c(C=Cc2cc(Br)ccc2O)nc2ccccc2c1=O`, 650 nM. Regarding `NC(N)=NN=CC(=O)Nc1cc([N+](=O)[O-])cc([N+](=O)[O-])c1`, the IC50 was 630 nM. Next, `O=C(Nc1ccc(OC2CCN(Cc3ccsc3)C2)c(Cl)c1)c1cccs1` (stereo not drawn): 960 nM.

Molecule `CCN(CCCN1CCCCC1)c1cc(C)nc(Nc2ccc(C)c(C)c2)n1` showed an IC50 of 1020 nM. Take `O=C(NCc1cccc(F)c1)Nc1cccc(-c2cccc(-c3nc4ccccc4[nH]3)c2)c1`: the IC50 was found to be 390 nM. The molecule `Cc1cc2ncn(-c3nccc(NCc4ccc(F)cc4)n3)c2cc1C` registered an IC50 of 890 nM. As to `COc1ccc(-c2cccc(NC(=O)c3ccc(C#N)cc3)c2)cc1CN1CCN(C)CC1`, the IC50 amounted to 990 nM.

Molecule `O=C(Nc1cccc(-c2nn3ccccc3c2-c2ccnc(Nc3cccc(C(F)(F)F)c3)n2)c1)c1c(F)cccc1F` had an IC50 of 630 nM. For `Clc1ccccc1CNc1noc(-c2sccc2Br)n1`, the IC50 turned out to be 790 nM. In turn, `COc1cc(NC2=NS(=O)(=O)c3cc(Cl)ccc3N2C)cc(OC)c1OC` showed an IC50 of 420 nM. Next, `CNCCCN(C)C(=O)Oc1c(Br)c(C)nc(C)c1-c1ccc(Oc2ccc(OC(F)(F)F)cc2)cc1`: 390 nM; `COc1cccc(OC)c1OCCCON1C(N)=NC(N)=NC1(C)C`: 10 nM. In turn, `CCC(O)c1ccc(Br)cc1NC(=O)c1cccc(Cl)c1` (stereo not drawn) came in with an IC50 of 1020 nM.

With `COc1ccccc1-c1csc(C(=O)NCC2CCN(Cc3ccc(C(C)C)cc3)C2)c1` (stereo not drawn), the IC50 came out at 1350 nM. `OCC1CCN(Cc2ccc(-c3cccc(-c4nc5ccc(C(F)(F)F)cc5[nH]4)c3)cc2)CC1` displayed a 50% inhibitory concentration (IC50) of 480 nM. As for `COc1cccc(-c2cnc(N)c(-c3nc4ccc(C(F)(F)F)cc4[nH]3)c2)c1`, the figure is 650 nM; as for `O=C(Nc1cc(Cl)ccc1O)c1cnn2c(C(F)(F)F)cc(-c3cccs3)nc12`, 860 nM; as for `COc1ccc(CCNC(=O)c2cc3c(=O)n4cccc(C)c4nc3n(C)c2=N)cc1`, 760 nM. As for `COc1ccc2ccccc2c1CCCCN1CCN(CC(c2ccc(F)cc2)N2CCC(N3CCCC3)CC2)CC1` (stereo not drawn), the figure is 620 nM; as for `CCCNC(=O)c1cncc(-c2ccc(CNCCCc3ccccc3)cc2)c1`, 690 nM; as for `O=C(C1CCN(c2nnnn2-c2ccccc2)CC1)N1CCc2ccccc2C1`, 710 nM. Next, `Cn1cncc1C(=O)Nc1cccc(-c2cccc(-c3nc4ccc(C(F)(F)F)cc4[nH]3)c2)c1`: 200 nM; `CC(CN1CCN(C)CC1)C(=O)Nc1ccc(-c2ccc(-c3nc4ccccc4[nH]3)s2)cc1` (stereo not drawn): 640 nM; `COC(=O)c1ccc2c(c1)nc(Nc1cccc(F)c1)n2CC(O)c1ccccn1` (stereo not drawn): 730 nM. `c1cncc(Oc2ccc(Nc3ccnc4cc(-c5cccc(CNCCN6CCOCC6)c5)ccc34)cc2)c1` showed an IC50 of 110 nM. Next, `Cc1cc(N2CCCN(CC3CCCCC3)CC2)nc(Nc2ccc(Br)cc2)n1`: 940 nM.

Turning to `O=C(O)Cc1ccc(-c2c[nH]c3ncc(-c4cccc5ncccc45)cc23)cc1`, the IC50 turned out to be 850 nM.

`CCN(CC)CCCn1c(N)c(-c2nc3ccccc3[nH]2)c2nc(C#N)c(C#N)nc21` displayed an IC50 of 270 nM. `COC(=O)c1cccc(NC(=O)NC2CCN(c3ccnc(Nc4ccc(F)cc4)n3)C2)c1` (stereo not drawn) yielded an IC50 of 500 nM. Next, `CC(CN)OCn1cnc2c(N)ncnc21` (stereo not drawn): 230 nM. Take `CC=CC1CCNC(C(O)c2ccnc3ccc(OC)cc23)C1` (stereo not drawn): the IC50 was found to be 1090 nM. As for `CC(C)C[C@H](NC(=O)c1cc2ccccc2s1)C(=O)N[C@H]1CCN(Cc2ccc(I)c(OCCN3CCCC3)c2)C1`, the figure is 1350 nM. Molecule `O=C(Nc1cccc(CN2CCN(C(=O)c3cccc(F)c3)CC2)c1)c1ccco1` came in with an IC50 of 770 nM. `Cc1c(N=O)cc(C(C)(C)C)c(O)c1C(=O)Nc1ccc([N+](=O)[O-])cc1Cl` displayed a half-maximal inhibitory concentration (IC50) of 770 nM. As for `CS(=O)(=O)c1cc2c(Nc3ccc(N4CCOCC4)cc3)c(C(N)=O)cnc2cc1Br`, the figure is 250 nM. As for `COCCCNC(=O)C1CCN(C(c2ccc(Cl)cc2)c2ccc(Cl)cc2)CC1`, the figure is 920 nM. `COc1ccc(CN(C)CCCCc2ccc(NC(=O)COc3cccc4sc5ccccc5c(=O)c34)cc2)cc1OC` gave an IC50 of 810 nM. Next, `NS(=O)(=O)c1ccccc1Nc1nc(Nc2ccc(N3CCOCC3)cc2)nc2c1CCC2`: 670 nM.

For `CNC(=O)c1ccccc1Nc1nc(Nc2cccnc2)ncc1C`, the IC50 is 100 nM. Turning to `CC1(C)N=C(N)N=C(N)N1OCc1cccc(C#N)c1`, the IC50 was found to be 10 nM. Take `Cc1ccc(O)c(C(=O)c2cnc3c(c2)c(-c2ccc(F)cc2)c(C#N)c(=O)n3C)c1`: the IC50 stood at 970 nM. Turning to `CC(C)CC(NC(=O)c1cc2ccccc2s1)C(=O)N1CCCCCC1c1ccc(C(C)(C)C)cc1` (stereo not drawn), the IC50 is 860 nM. `CCOC(=O)N[C@@H]1CN[C@@H](C#Cc2cc3c(Nc4ccc(OCc5cccc(F)c5)c(Cl)c4)ncnc3s2)C1` displayed an IC50 of 1080 nM.

As to `CC(Nc1ncc(-c2ccsc2)c(-c2nccs2)n1)c1ccc2c(c1)OCCO2` (stereo not drawn), the IC50 stood at 170 nM. Next, `Cc1ccc(Nc2ccnc(Nc3ccc4c(c3)CS(=O)(=O)C4)n2)cc1O`: 720 nM; `OC(CNCc1ccccc1OCc1ccccc1)c1cccc(Cl)c1` (stereo not drawn): 220 nM. As for `O=C(N[C@H]1CCN(Cc2ccc(OCCN3CCCC3)c3ccccc23)C1)c1ccc(Cl)c(Cl)c1`, the figure is 750 nM. Next, `CC(C)COc1ccc(Cl)cc1Cc1ccc(-c2nc3cc(F)c(F)cc3[nH]2)o1`: 890 nM; `CCC(C)CC(=O)Nc1ccc(OC)c(S(=O)(=O)N[C@@H]2CCN(C#N)C2)c1` (stereo partly drawn): 1490 nM; `COc1cc(F)c2nccc([C@@H](O)CN3CCC(NCc4cc5c(cc4F)OCCO5)CC3)c2c1`: 680 nM. As to `CCOC(=O)c1ccc(NC(=O)NNC(=O)c2ccc(CCN3CCC(c4nc(COCC(F)(F)F)c(-c5ccc(F)cc5)o4)CC3)cc2)cc1`, the IC50 amounted to 570 nM. As for `O=C(Nc1ccc2ccccc2c1)N1CCC(NCc2cccc([N+](=O)[O-])c2)CC1`, the figure is 860 nM; as for `FC(F)(F)c1ccc2nc(-c3ccc(-c4cccc(CNCC5CCCO5)c4)cc3)[nH]c2c1` (stereo not drawn), 250 nM; as for `CCOc1cc(C)ccc1C1CCN(CCCCNC(=O)c2coc(-c3ccc(Cl)cc3)c2)CC1`, 910 nM. Next, `CCn1c(-c2nonc2N)nc2c(-c3cccc(NC(=O)Nc4ccc(C(F)(F)F)cc4)c3)ncc(OCCCN)c21`: 1050 nM.
